pIC50: −log10 of the molar value.

Results on 2 compounds are retold here after ChEMBL document CHEMBL1938277, “N-acylaminophenothiazines: neuroprotective agents displaying multifunctional activities for a potential treatment of Alzheimer's disease” (Eur J Med Chem, 2011).

Data set [1] deals with SH-SY5Y. The experiment in a line: Neuroprotective activity against rotenone/oligomycin A-induced cell death in human SH-SY5Y cells assessed as LDH release at 0.3 uM after 24 hrs relative to control. In kind it is functional.
Data set [2] concerns SH-SY5Y. The data set can be described thus: Neuroprotective activity against rotenone/oligomycin A-induced cell death in human SH-SY5Y cells assessed as LDH release at 1 uM after 24 hrs relative to control. In kind it is functional.
In data set [3] the test system is SH-SY5Y. The data set can be described thus: Neuroprotective activity against rotenone/oligomycin A-induced cell death in human SH-SY5Y cells assessed as LDH release at 1 uM treated 24 hrs before rotenone/oligomycin A challenge measured after 24 hrs relative to control. In kind it is functional.
Data set [4] relates to SH-SY5Y. The experiment in a line: Antioxidant activity in human SH-SY5Y cells assessed as sequestering of rotenone/oligomycin A-induced mitochondrial free radicals at 0.3 uM after 120 mins by DCFH-DA assay. It counts as functional.
Data set [5] deals with SH-SY5Y. The data set can be described thus: Neuroprotective activity against H2O2-induced cell death in human SH-SY5Y cells assessed as LDH release at 10 uM incubated for 24 hrs before H2O2 challenge measured after 24 hrs relative to control. In kind it is functional.
Data set [6] relates to SH-SY5Y. The data set can be described thus: Neuroprotective activity against FPL64176-induced toxicity in human SH-SY5Y cells assessed as increase in cell viability at 10 uM treated 24 hrs before FPL64176 challenge measured after 24 hrs by MTT assay relative to control. In kind it is functional.
For data set [7], the system named is SH-SY5Y. The data set can be described thus: Neuroprotective activity against amyloid beta 1 to 42-induced cell death in human SH-SY5Y cells assessed as increase in cell viability at 1 uM pre-incubated for 24 hrs before amyloid beta 1 to 42 challenge measured after 24 hrs by MTT assay relative to control. In kind it is functional.
The subject of data set [8] is SH-SY5Y. The experiment in a line: Neuroprotective activity against H2O2-induced cell death in human SH-SY5Y cells assessed as LDH release at 3 uM incubated for 24 hrs before H2O2 challenge measured after 24 hrs relative to control. It counts as functional.
For a further data set, the target named is Cholinesterase (Equus caballus, UniProt P81908).
Data set [9] relates to SH-SY5Y. The data set can be described thus: Neuroprotective activity against amyloid beta 1 to 42-induced cell death in human SH-SY5Y cells assessed as increase in cell viability at 0.3 uM pre-incubated for 24 hrs before amyloid beta 1 to 42 challenge measured after 24 hrs by MTT assay relative to control. In kind it is functional.
Data set [10] relates to SH-SY5Y. The experiment in a line: Neuroprotective activity against FPL64176-induced toxicity in human SH-SY5Y cells assessed as increase in cell viability at 0.3 uM treated 24 hrs before FPL64176 challenge measured after 24 hrs by MTT assay relative to control. In kind it is functional.
The subject of data set [11] is SH-SY5Y. The experiment in a line: Neuroprotective activity against FPL64176-induced toxicity in human SH-SY5Y cells assessed as increase in cell viability at 1 uM treated 24 hrs before FPL64176 challenge measured after 24 hrs by MTT assay relative to control. It counts as functional.
Data set [12] deals with SH-SY5Y. The experiment in a line: Neuroprotective activity against H2O2-induced cell death in human SH-SY5Y cells assessed as LDH release at 1 uM incubated for 24 hrs before H2O2 challenge measured after 24 hrs relative to control. In kind it is functional.
In data set [13] the test system is SH-SY5Y. The experiment in a line: Cytotoxicity against human SH-SY5Y cells. It counts as cell-based.
In a further data set the target is T1, Acetylcholinesterase (Bos taurus, UniProt P23795).
T1 sequence (P23795 whole entry): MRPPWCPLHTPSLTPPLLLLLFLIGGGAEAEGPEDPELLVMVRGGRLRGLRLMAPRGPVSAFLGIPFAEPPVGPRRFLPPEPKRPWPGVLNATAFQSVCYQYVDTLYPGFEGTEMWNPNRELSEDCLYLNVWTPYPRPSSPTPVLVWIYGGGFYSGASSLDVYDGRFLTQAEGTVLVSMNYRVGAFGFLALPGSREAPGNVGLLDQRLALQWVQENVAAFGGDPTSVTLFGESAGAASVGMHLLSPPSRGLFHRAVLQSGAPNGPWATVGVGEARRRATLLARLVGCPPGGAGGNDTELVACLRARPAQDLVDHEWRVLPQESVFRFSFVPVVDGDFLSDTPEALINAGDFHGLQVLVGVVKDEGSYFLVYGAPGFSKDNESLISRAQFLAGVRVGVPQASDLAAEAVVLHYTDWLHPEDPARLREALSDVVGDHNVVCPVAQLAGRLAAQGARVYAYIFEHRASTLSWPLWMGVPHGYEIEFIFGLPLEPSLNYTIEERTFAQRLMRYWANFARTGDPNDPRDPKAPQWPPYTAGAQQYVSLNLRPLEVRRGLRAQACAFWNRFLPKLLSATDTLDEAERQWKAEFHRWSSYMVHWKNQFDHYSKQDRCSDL
The experiment in a line: biochemical.

Data set [14] has as its system SH-SY5Y. The data set can be described thus: Neuroprotective activity against rotenone/oligomycin A-induced cell death in human SH-SY5Y cells assessed as LDH release at 0.3 uM treated 24 hrs before rotenone/oligomycin A challenge measured after 24 hrs relative to control. It counts as functional.
Data set [15] relates to SH-SY5Y. The data set can be described thus: Neuroprotective activity against rotenone/oligomycin A-induced cell death in human SH-SY5Y cells assessed as LDH release at […] after 24 hrs relative to control. In kind it is functional.
Data set [16] concerns SH-SY5Y. The data set can be described thus: Neuroprotective activity against amyloid beta 1 to 42-induced cell death in human SH-SY5Y cells assessed as increase in cell viability at 3 uM pre-incubated for 24 hrs before amyloid beta 1 to 42 challenge measured after 24 hrs by MTT assay relative to control. It counts as functional.
For data set [17], the system named is SH-SY5Y. The data set can be described thus: Neuroprotective activity against okadaic acid-induced cell death in human SH-SY5Y cells assessed as LDH release at 1 uM treated 24 hrs before okadaic acid challenge measured after 24 hrs relative to control. In kind it is functional.
The next data set can be described thus: in vitro. Conditions: PAMPA.
Data set [18] deals with SH-SY5Y. The experiment in a line: Neuroprotective activity against rotenone/oligomycin A-induced cell death in human SH-SY5Y cells assessed as LDH release at 3 uM treated 24 hrs before rotenone/oligomycin A challenge measured after 24 hrs relative to control. In kind it is functional.
The test system of data set [19] is SH-SY5Y. The experiment in a line: Neuroprotective activity against okadaic acid-induced cell death in human SH-SY5Y cells assessed as LDH release at 3 uM treated 24 hrs before okadaic acid challenge measured after 24 hrs relative to control. In kind it is functional.
Data set [20] has as its system SH-SY5Y. The experiment in a line: Neuroprotective activity against okadaic acid-induced cell death in human SH-SY5Y cells assessed as LDH release at 0.3 uM treated 24 hrs before okadaic acid challenge measured after 24 hrs relative to control. In kind it is functional.
Data set [21] relates to SH-SY5Y. The experiment in a line: Neuroprotective activity against H2O2-induced cell death in human SH-SY5Y cells assessed as LDH release at 30 uM incubated for 24 hrs before H2O2 challenge measured after 24 hrs relative to control. It counts as functional.
Data set [22] concerns SH-SY5Y. The data set can be described thus: Neuroprotective activity against amyloid beta 1 to 42-induced cell death in human SH-SY5Y cells assessed as increase in cell viability at 10 nM pre-incubated for 24 hrs before amyloid beta 1 to 42 challenge measured after 24 hrs by MTT assay relative to control. It counts as functional.

Cholinesterase, sequence (P81908 whole entry): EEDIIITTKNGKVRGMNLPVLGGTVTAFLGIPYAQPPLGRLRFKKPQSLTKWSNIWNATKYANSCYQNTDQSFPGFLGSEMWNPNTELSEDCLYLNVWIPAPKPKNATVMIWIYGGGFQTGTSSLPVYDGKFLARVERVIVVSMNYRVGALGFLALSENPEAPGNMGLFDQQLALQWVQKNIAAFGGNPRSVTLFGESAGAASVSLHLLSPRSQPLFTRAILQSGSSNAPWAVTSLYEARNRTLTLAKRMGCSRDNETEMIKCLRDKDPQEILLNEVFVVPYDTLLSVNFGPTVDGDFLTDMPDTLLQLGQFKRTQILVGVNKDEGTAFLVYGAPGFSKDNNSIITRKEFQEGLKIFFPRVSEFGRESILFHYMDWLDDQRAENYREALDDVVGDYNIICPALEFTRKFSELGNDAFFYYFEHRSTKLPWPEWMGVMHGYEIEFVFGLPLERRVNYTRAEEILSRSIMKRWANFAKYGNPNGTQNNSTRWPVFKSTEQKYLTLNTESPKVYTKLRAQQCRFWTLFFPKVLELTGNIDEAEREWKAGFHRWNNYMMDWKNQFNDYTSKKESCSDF
Description for Acetylcholinesterase: Inhibition of AChE in bovine erythrocytes using acetylthiocholine as substrate by Ellman method
Description for in vitro: Permeability of the compound by PAMPA assay

Regarding `O=C(CN1CCCC1)NN1c2ccccc2Sc2cc(Cl)ccc21`, the Activity in the data set on SH-SY5Y [1] was 28.6%; with SH-SY5Y [2], 44.1%; in the data set on SH-SY5Y [3], 51.8%; with SH-SY5Y [4], 14.7%; in the data set on SH-SY5Y [5], 79.9%; with SH-SY5Y [6] it was 36.3%. Moreover, the Activity amounted to 81.3% in the data set on SH-SY5Y [7]; 57.7% in the data set with SH-SY5Y [8]; 91.3% with SH-SY5Y [9]; 39.8% in the data set with SH-SY5Y [10]; 44.5% in the data set with SH-SY5Y [11]; 54.6% in the data set on SH-SY5Y [12]. The Activity entry with SH-SY5Y [13] is “Non-toxic”; in the data set on SH-SY5Y [14] it was 55%; with SH-SY5Y [15] it was 44.3%; in the data set with SH-SY5Y [16], 13.6%; in the data set on SH-SY5Y [17], 32%; in the data set with SH-SY5Y [18], 58.9%. For the same compound, the values for the Activity in the data set on SH-SY5Y [19], with SH-SY5Y [20] and with SH-SY5Y [21] were 29%, 28.3% and 69.5%, respectively. Also, the negative logarithm of the IC50 (pIC50) against Cholinesterase was 6.00; against Acetylcholinesterase it was under 4.00. In the data set “in vitro”, this compound registered a Papp of 14.9 ×10⁻⁶ cm/s.
For `COc1ccc2[nH]cc(CCNC(C)=O)c2c1` [MELATONIN], in the data set on SH-SY5Y [22], the Activity amounted to 72%.
